How the values were obtained:
Experiment in all cases: relative viability (nuclei count vs DMSO), 5 days (fraction); higher = more cells survive
[1] = compound: COc1cc(-c2nn([C@H]3CC[C@H](N4CCN(C(C)=O)CC4)CC3)c3ncnc(N)c23)ccc1NC(=O)c1cc2ccccc2n1C + N=C(N)NC(=N)NCCc1ccccc1 [Phenformin] (partner 250 µM)
Method in brief: (§1)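 One day after seeding in 1536-well plates, lung cancer cell lines were dosed by pin tool. Dosing was either single-drug or a fixed anchor-drug dose plus five library-drug doses (not always all listed) in √10 steps. After 5 days, nuclei were stained in one fix-and-stain step and counted on 4× images, and relative viability is the nuclei count of treated wells over that of vehicle wells, given as the median of duplicate plates.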

[2] = compound: COc1cc(-c2nn([C@H]3CC[C@H](N4CCN(C(C)=O)CC4)CC3)c3ncnc(N)c23)ccc1NC(=O)c1cc2ccccc2n1C + CC(=O)c1c(C)c2cnc(Nc3ccc(N4CCNCC4)cn3)nc2n(C2CCCC2)c1=O [Palbociclib] (partner 0.5 µM)
Method in brief: as §1

Midostaurin + Vorinostat = compound: CO[C@@H]1[C@H](N(C)C(=O)c2ccccc2)C[C@H]2O[C@]1(C)n1c3ccccc3c3c4c(c5c6ccccc6n2c5c31)C(=O)NC4 [Midostaurin] + O=C(CCCCCCC(=O)Nc1ccccc1)NO [Vorinostat] (partner 1 µM)
Method in brief: as §1

[3] = compound: COc1cc(-c2nn([C@H]3CC[C@H](N4CCN(C(C)=O)CC4)CC3)c3ncnc(N)c23)ccc1NC(=O)c1cc2ccccc2n1C + Cc1nc(Nc2ncc(C(=O)Nc3c(C)cccc3Cl)s2)cc(N2CCN(CCO)CC2)n1 [Dasatinib] (partner 0.075 µM)
Method in brief: as §1

Midostaurin + Lapatinib = compound: CO[C@@H]1[C@H](N(C)C(=O)c2ccccc2)C[C@H]2O[C@]1(C)n1c3ccccc3c3c4c(c5c6ccccc6n2c5c31)C(=O)NC4 [Midostaurin] + CS(=O)(=O)CCNCc1ccc(-c2ccc3ncnc(Nc4ccc(OCc5cccc(F)c5)c(Cl)c4)c3c2)o1 [Lapatinib] (partner 2 µM)
Method in brief: as §1

Row | Cell Line | relative viability ([1]; first compound 0.0128 µM) | relative viability ([1]; first compound 0.04048 µM) | relative viability ([1]; first compound 0.128 µM) | relative viability ([1]; first compound 1.28 µM) | relative viability ([2]; first compound 0.0128 µM) | relative viability ([2]; first compound 0.04048 µM) | relative viability ([2]; first compound 0.128 µM) | relative viability ([2]; first compound 1.28 µM) | relative viability (Midostaurin + Vorinostat; first compound 0.01 µM) | relative viability (Midostaurin + Vorinostat; first compound 0.03162 µM) | relative viability (Midostaurin + Vorinostat; first compound 0.1 µM) | relative viability (Midostaurin + Vorinostat; first compound 0.3162 µM) | relative viability ([3]; first compound 0.0128 µM) | relative viability ([3]; first compound 0.04048 µM) | relative viability ([3]; first compound 0.128 µM) | relative viability ([3]; first compound 1.28 µM) | relative viability (Midostaurin + Lapatinib; first compound 0.01 µM) | relative viability (Midostaurin + Lapatinib; first compound 0.03162 µM) | relative viability (Midostaurin + Lapatinib; first compound 0.1 µM) | relative viability (Midostaurin + Lapatinib; first compound 0.3162 µM)
1 | PC-14 | 0.646 | 0.599 | 0.581 | 0.751 | 0.515 | 0.503 | 0.486 | 0.433 | 0.719 | 0.673 | 0.67 | 0.666 | 0.243 | 0.265 | 0.282 | 0.278 | 0.345 | 0.289 | 0.302 | 0.266
2 | NCI-H1437 | 0.429 | 0.303 | 0.331 | 0.287 | 0.302 | 0.326 | 0.281 | 0.283 | 0.869 | 0.833 | 0.818 | 0.654 | 0.428 | 0.437 | 0.439 | 0.302 | 0.808 | 0.848 | 0.773 | 0.882
3 | NCI-H460 | 0.551 | 0.553 | 0.501 | 0.482 | 0.17 | 0.133 | 0.148 | 0.153 | 0.697 | 0.578 | 0.65 | 0.115 | 0.526 | 0.386 | 0.475 | 0.507 | 0.839 | 1.03 | 0.971 | 0.936
4 | NCI-H1666 | 0.568 | 0.567 | 0.577 | 0.537 | 0.678 | 0.661 | 0.6 | 0.622 | 1.12 | 0.985 | 1.02 | 0.999 | 0.766 | 0.807 | 0.802 | 0.756 | 0.74 | 0.617 | 0.81 | 0.634
5 | NCI-H1651 | 0.352 | 0.329 | 0.3 | 0.31 | 0.522 | 0.539 | 0.513 | 0.49 | 0.566 | 0.571 | 0.566 | 0.593 | 0.426 | 0.568 | 0.432 | 0.458 | 0.74 | 0.931 | 0.787 | 1.05
6 | NCI-H1755 | 0.647 | 0.547 | 0.592 | 0.614 | 0.54 | 0.467 | 0.458 | 0.402 | 0.748 | 0.809 | 0.715 | 0.783 | 0.452 | 0.386 | 0.43 | 0.433 | 1.03 | 0.976 | 0.903 | 0.917
7 | NCI-H661 | 0.271 | 0.273 | 0.256 | 0.261 | 0.421 | 0.436 | 0.42 | 0.419 | 0.777 | 0.72 | 0.792 | 0.739 | 0.923 | 0.765 | 0.829 | 0.94 | 0.389 | 0.449 | 0.411 | 0.384
8 | HARA | 0.426 | 0.533 | 0.41 | 0.332 | 0.268 | 0.241 | 0.246 | 0.185 | 0.482 | 0.603 | 0.466 | 0.505 | 0.259 | 0.21 | 0.269 | 0.236 | 0.641 | 0.665 | 0.522 | 1.01
